Molecules are shown by their SMILES. Like-named read-outs stand apart in the source and are kept apart here. Where only a bound is given, the exact number is not on record here.

Assay type in all cases: cell-based
The subject of series [1] is E. coli (A2058G) TA531 cells with pKK35 plasmid, mutated 23S rRNA. Kind of series: Growth inhibition of bacterial cell cultures, CAM-resistant mutant. As to conditions: for IC50: Escherichia coli, read-out: IC50 (inhibit the growth by half). The source says:
(§1) CAM free base [D-(-)threo-1-(p-nitrophenyl)-2-amino-1,3-propanediol], puromycin dihydrochloride, tRNA^Phe from E. coli, dimethyl sulfate (DMS), DMS stop solution and tRNA^Phe from E. coli were purchased from Sigma-Aldrich. Kethoxal and 1-cyclohexyl-3-(2-morpholinoethyl)-carbodiimide metho-p-toluene sulfate (CMCT) were from MP Biomedicals and Fluka Biochemicals, respectively. AMV reverse transcriptase was supplied by Roche, dNTPs by HT Biotechnology, and ddNTPs by Jena Bioscience. L-[2,3,4,5,6 -^3H]Phenylalanine was from Amersham Biosciences and [α-^32P]ATP from Izotop. Cellulose nitrate filters (type HA; 0.45 μm pore size) were from Millipore Corp. Details in experimental procedures of synthesis and physical and spectra data for the synthesized compounds will be published elsewhere. […] The mesothelioma cell line ZL34 and its immortalized counterpart cell line Met5A, were kindly provided by Prof. G. Stathopoulos (University of Patras).
(§2) S. aureus or E. coli cells (400 μl of a 0.700 OD560 preculture) containing wild-type or mutant ribosomes were added in 3.6 ml of LB (Luria Broth) medium and grown at 37°C in the presence or absence of CAM or PA–CAM conjugates until the optical density of the control culture (grown in the absence of drug) reached the value 0.700 at 560 nm. From the growth curves, the IC50 value for each strain was estimated as the concentration of the drug that is required to inhibit the growth by half.

Series [2] has as its system E. coli (A2503C) TA531 cells with pKK35 plasmid, mutated 23S rRNA. Described as above. As to conditions: for IC50: Escherichia coli, read-out: IC50 (inhibit the growth by half).
Source text: as §1, §2

The test system of a further series is wild-type S. aureus. Kind of series: Growth inhibition of bacterial cell cultures. The settings on record: Staphylococcus aureus, read-out: IC50 (inhibit the growth by half). Here is the method: as §2
The next series has as its system wild-type E. coli. Kind of series: Growth inhibition of bacterial cell cultures. The settings on record: for IC50: Escherichia coli, read-out: IC50 (inhibit the growth by half); for IC50/IC50(puro): wild-type E. coli, IC50(puro) = concentration causing 50% inhibition in peptide-bond formation at 2 mM puromycin. Here is the method:
as §2

In series [3] the test system is human peripheral blood cells. Kind of series: Toxicity assay in human peripheral blood cells (cell counting). Here is the method: Peripheral blood was collected in EDTA-coated tubes from five healthy volunteers (age range: 25–30 years). Cell concentration was adjusted to 1.8 × 10^9 cells/l using RPMI-1640 medium (GIBCO BRL) containing 1% Penicillin/Streptomycin. CAM or PA–CAM conjugates were added at various concentrations and cells were cultured in triplicate under a humidified 5% CO2 atmosphere for 5 days, at 37°C. In parallel, cells were cultured in the absence of CAM or PA–CAM conjugates (control cultures). Counting of cells was performed daily in a CELL-DYN 3700 Hematology Analyzer (Abbott, USA) and values were expressed as a percentage of cells measured in control cultures.
Figure S1. Toxicity assays in human peripheral blood cells. Peripheral blood was collected in EDTA-coated tubes from 5 healthy volunteers (age range: 25-30 years). Cell concentration was adjusted to 1.8×10^9 cells/l using RPMI-1640 medium (GIBCO BRL) containing 1% penicillin/streptomycin. CAM or compound 4 was added at final concentrations equal to 30 or 60 μM and cells were cultured in triplicate under a humidified 5% CO2 atmosphere for 5 days, at 37°C. Control cultures were carried out in the absence of CAM or compound 4. Cultures were counted daily in a CELL-DYN 3700 Hematology Analyzer and values are expressed as a percentage of cells measured in control cultures.

The test system of series [4] is immortalized human mesothelial Met5A cells. Kind of series: Cell viability by trypan blue exclusion assay. As to conditions: for IC50: Homo sapiens, MeT-5A, Met5A cells, read-out: IC50 (toxicity, cell viability). How it is done:
(§3) ZL34 and Met5A cells were plated in sterile 96-well microtiter plates at 5 × 10^4cells/ml and grown in Dulbecco's modified Eagle's medium (DMEM), provided by Sigma-Aldrich and supplemented with 5% fetal bovine serum. Cultures were maintained in a humidified atmosphere with 5% CO2, at 37°C. Solutions at the appropriate concentration of each compound were added, and then cells were grown for 24, 48, 72 and 96 h. After treatment, the drug was removed by washing the cells twice with phosphate buffered saline. The cells were then trypsinized (100 μl Trypsin-EDTA × 1 (Biosera) solution/well, 10 min at 37°C), mixed with 1 ml DMEM and collected by centrifugation at 3000 × g for 5 min. Cell viabilities were determined by the trypan blue exclusion assay, using a TC10 automated cell counter (BIO-RAD). Viable cells were expressed as a percentage of total cells.
(§4) Figure S5. Toxicity assays in ZL34 and Met5A cell lines. ZL34 or Met5A cells were plated in sterile 96-well microtiter plates at 5×10^4 cells/ml and grown in DMEM, supplemented with 5% fetal bovine serum. Cultures were maintained in a humidified atmosphere with 5% CO2, at 37°C. Solutions at the appropriate concentration of each compound were added, and then cells were grown for 24 h, 72 h and 96 h. After treatment, CAM or compound 4 was removed by washing the cells twice with PBS. The cells were then trypsinized, mixed with 1 ml DMEM and collected by centrifugation at 3,000×g for 5 min. Cell viabilities were determined by the trypan blue exclusion assay, using a TC10 automated cell counter (BIO-RAD). Viable cells were expressed as a percentage of total cells. SPD, spermidine.

For series [5], the system named is human mesothelioma cells ZL34. Kind of series: Cell viability by trypan blue exclusion assay. As to conditions: for IC50: Homo sapiens, ZL34 cells, read-out: IC50 (toxicity, cell viability). How it is done:
as §3, §4

As usually defined, the IC50 is the concentration at which inhibition is half-maximal. Turning to `O=C(N[C@H](CO)[C@H](O)c1ccc([N+](=O)[O-])cc1)C(Cl)Cl` [CAM, Chloramphenicol], the IC50 in series [1] is 15.5 ± 1.3 µM; in series [2], 24.7 ± 2.3 µM; with wild-type S. aureus (WT-S. aureus, LB medium, 37°C), 3.1 ± 0.3 µM; in the series with wild-type E. coli (WT-E. coli, LB medium, 37°C), 6.2 ± 0.5 µM; in series [4] it was > 300 µM; in series [5] it was > 300 µM. In the series with wild-type E. coli, the “IC50/IC50(puro)” value stood at 1.17 ± 0.13. The “effects on other types of leukocytes” value in series [3] (30 μM for 24 or 48 h) was “negligible”. Besides, the “reduction in the viability of neutrophils” value in series [3] (30 μM for 24 or 48 h) is on record as 20%. The “rescue by exogenously added spermidine” value in series [5] (ZL34 cells treated with 300 μM compound, 3 mM spermidine) is “no rescue was observed”.
As to `NCCCN(CCCCN(Cc1ccccc1)Cc1ccccc1)C(=O)CCC(=O)N[C@H](CO)[C@H](O)c1ccc([N+](=O)[O-])cc1` [Compound 4], the “IC50 superiority over CAM” value in series [1] (E. coli A2058G mutant) and in series [2] (E. coli A2503C mutant) was ~2 fold in each case. In addition, the IC50 is 9.4 ± 1 µM in series [1]; 9.4 ± 0.9 µM in series [2]; 4.7 ± 0.5 µM in the series with wild-type S. aureus; 9.4 ± 0.8 µM in the series on wild-type E. coli; 60 ± 5 µM in series [4]; 25 ± 3 µM in series [5]. Also, the “IC50/IC50(puro)” value with wild-type E. coli is 5.60 ± 0.76. Besides, the “effects on other types of leukocytes” value in series [3] (30 μM for 24 or 48 h) is given as “negligible”. Also, the “effect on the viability of human monocytes and lymphocytes” value in series [3] (120 h culture period) is “little or no effect”. In series [3] (120 h culture period), the toxicity to neutrophils result was “moderate and transient toxicity”. Besides, the “rescue by exogenously added spermidine” value in series [4] (Met5A cells exposed to an IC50 dose of the compound, spermidine at 10 × IC50) was “recover little of the lost viability”. Moreover, the “viability after rescue by exogenously added spermidine” value in series [5] (ZL34 cells exposed to an IC50 dose of the compound, spermidine at 10 × IC50) is recorded as ~95%.

For the origin of these results see article PMC4117768, “Conjugation with polyamines enhances the antibacterial and anticancer activity of chloramphenicol” (Nucleic Acids Research, 2014).
